{"source": "patent US6756033B2", "about": "“Method for delivering benzindene prostaglandins by inhalation” (United Therapeutics Corporation, priority 1999, dated 2004)", "key": {"[1]": {"tested_on": "U44069 induced pulmonary hypertension", "type": "in vivo, sheep", "description": "(§1) The efficacy of benzindene prostaglandins, such as UT-15, for treating pulmonary hypertension can be assessed by determining the hemodynamics associated with pulmonary hypertension. In particular, measurements of pulmonary arterial pressure (PPA), left atrial pressure (PLA), central venous pressure (PCV), systemic arterial pressure (PSYS), heart rate (HR), and cardiac output (CO) are useful in determining the effects of benzindene prostaglandins delivered by inhalation or parenterally.\n(§2) Heart rate was determined by measuring the time (seconds) required for 25 heart beats to occur (t25) as indicated by the pulsations on the blood flow meter; the beats per minute (BPM) were calculated by the following equation: […]\n(§3) All pressure may be monitored by commercially available transducers, such as Model 1290A HEWLETT PACKARD™ transducer (Andover, Mass.), which is attached to VALIDYNE CD19A Carrier Dmod. Amplifiers (Northridge, Calif.). Cardiac output may be measured by a Transonic Systems T101 Ultrasonic Bloodflow Meter (Ithaca, N.Y.). The pressure and blood flow signals may be recorded on ASTROMED MT-9500 Stripchart Recorder (West Warwick, R.I.) and digitally recorded with a personal computer using Easy Data Acquisition Software (Nashville, Tenn.).\nSheep were used as the animal model of choice for these experiments for a number of reasons. First is the docile nature of sheep. They will stand quietly in metabolic cages without having to utilize tranquilizing drugs, which have the potential to complicate experimental results. Second, sheep are large enough to allow direct measurement of CO, PPA, PLA, PCV, and PSYS. Sheep are also large enough to allow direct aerosolization of substances into the lung via trachoestomy thereby preventing swallowing of drugs and thus eliminating a possible secondary route of administration of UT-15. Third, sheep can tolerate a great amount of instrumentation with little or no discomfort. Fourth, sheep have been utilized for several years as an animal model of pulmonary arterial hypertension and thus, there is a great amount of historical data with which to compare the results. The agent chosen to induce pulmonary arterial hypertension was a PGH2 analog, U44069 (9,11-dideoxy,9α,11α-epoxymethanoprostaglandin F2α). The reasons for using U44069 are that it is a very potent pulmonary vasoconstrictor, its characteristics are very similar to endogenously formed thromboxane A2, and it can be titrated to induce the desired degree of pulmonary vasoconstriction. U44069 was mixed with sterile normal saline immediately prior to being used and was protected from light by wrapping the solution with aluminum foil. The concentration of U44069 was adjusted such that a minimal flow rate of 0.8 ml per min was being infused into the sheep. This was done because more concentrated U44069 would have to be infused at very low rates and often causes “pulses” of U44069 due to the infusion characteristics of roller pumps. The U44069 pulses cause vasoconstriction “spikes” and thus would create induce a non-steady-state.\nSix yearling sheep (3 males, 3 females; 21-37 kg) were fasted 18-24 hours and initially anesthetized with a short acting barbiturate (thiopental) to allow intubation of the sheep. Halothane gas anesthesia (1.5-2.5%) was then used for the surgical procedures. Via a left thoracotomy, a Transonic blood flow probe was placed around the main pulmonary artery, silastic catheters placed in the main pulmonary artery and left atrium. After approximately 7 days the sheep were reanesthetized and the left carotid artery cannulated, a Cordis Introducer Sheath inserted in the left jugular vein, and a tracheotomy made. The sheep were allowed to recover for another 3-5 days prior to experimentation. […]"}, "sheep [2]": {"tested_on": "sheep", "assay": "Intravenous and aerosolized UT-15 dose response effects on baseline hemodynamics", "type": "in vivo", "conditions": "baseline conditions; for central venous pressure (PCV) relative to baseline / pulmonary arterial pressure (PPA) relative to baseline: any dose; for systemic arterial pressure (PSYS): any administration rate; for cardiac output (CO) relative to baseline: any delivery rate", "description": "as §1, §2, §3\nInhalation solutions were prepared by combining 1.25 grams of Sodium Citrate (Hydrous), 0.125 Citric Acid (Anhydrous), 0.05 grams of Sodium Hydroxide (NF/BP), 0.125 grams of UT-15, and approximately 250 ml of Water for Injection according to the following steps.\nWorking solution was made by adding sterile saline to dilute the UT15 stock solution or placebo to the desired amount (depending on dose desired, weight of sheep, and duration of aerosolizing). This solution was then added to the nebulizer in volumes not exceeding 5 ml until entire amount was used.\nSix yearling sheep (3 males, 3 females; 21-37 kg) were fasted 18-24 hours and initially anesthetized with a short acting barbiturate (thiopental) to allow intubation of the sheep. Halothane gas anesthesia (1.5-2.5%) was then used for the surgical procedures. Via a left thoracotomy, a Transonic blood flow probe was placed around the main pulmonary artery, silastic catheters placed in the main pulmonary artery and left atrium. After approximately 7 days the sheep were reanesthetized and the left carotid artery cannulated, a Cordis Introducer Sheath inserted in the left jugular vein, and a tracheotomy made. The sheep were allowed to recover for another 3-5 days prior to experimentation. These sheep were used to allow measurement of pulmonary arterial pressure (PPA), left atrial pressure (PLA), central venous pressure (PCV), systemic arterial pressure (PSYS), heart rate (HR), and cardiac output (CO) after baseline measurements were made for a minimum of 30 minutes.\nTwo separate experiments were conducted to determine the dose response effects of intravenously infused UT-15 on baseline hemodynamics and aerosolized UT-15 on baseline hemodynamics. For the infusion experimental protocol, after a 30 minute baseline was established, UT-15 was infused intravenously at 3 rates (250, 500 and 1000 ng per kg per min). In three sheep, the infusion rates lasted for 30 minutes each, and for the other three sheep, the infusions were for 60 minutes each.\nThe aerosolized UT-15 protocol involved establishing a 30 minute baseline, then administering aerosolized UT-15 via a tracheostromy at rates of […] per kg of body weight per min and at an aerosolization rate of 0.28 ml/min. Again, three sheep were aerosolized for 30 minutes and the other three sheep were aerosolized for 60 minutes."}, "blood platelets": {"tested_on": "blood platelets", "conditions": "cited from earlier work"}, "sheep [3]": {"tested_on": "sheep", "assay": "Intravenous and aerosolized UT-15 dose response effects on baseline hemodynamics", "type": "in vivo", "conditions": "baseline conditions, aerosolized, 250, 500, and 100 ng per kg per min"}, "[4]": {"conditions": "U44069 iv infusion alone, 1 ng per kg per min"}}, "data": [{"smiles": "CCCCC[C@H](O)/C=C/C1C2COC(C2)C1C/C=C\\CCCC(=O)O", "note": "(stereo partly drawn) [U44069, 9,11-dideoxy,9α,11α-epoxymethanoprostaglandin F2α, reference compound]", "values": [{"measurement": "left atrial pressure", "setting": "[1]; [4]", "value": "did not alter left atrial pressure significantly"}, {"measurement": "pulmonary arterial pressure (PPA) relative to baseline", "setting": "[1]; [4]", "value": "significantly increased"}, {"measurement": "pulmonary vascular resistance (PVR)", "setting": "[1]; [4]", "value": "dramatic increase"}]}, {"smiles": "CCCCC[C@H](O)CC[C@@H]1[C@H]2Cc3cccc(OCC(=O)O)c3C[C@H]2C[C@H]1O", "note": "[UT-15, 9-deoxy-2′,9-alpha-methano-3-oxa-4,5,6-trinor-3,7-(1′,3′-interphenylene)-13,14-dihydro-prostaglandin F1]", "values": [{"measurement": "central venous pressure (PCV) relative to baseline", "setting": "sheep [2]; aerosol", "value": "no statistical difference"}, {"measurement": "pulmonary vascular resistance (PVR)", "setting": "sheep [2]; aerosolized, all 3 delivery rates", "value": "significant decrease"}, {"measurement": "systemic arterial pressure (PSYS)", "setting": "sheep [2]; aerosolized", "value": "no significant effect"}, {"measurement": "cardiac output (CO) relative to baseline", "setting": "sheep [2]; aerosolized", "value": "no significant changes"}, {"measurement": "pulmonary arterial pressure (PPA) relative to baseline", "setting": "sheep [2]; aerosolized, not statistically different", "value": "general trend for PPA to decrease"}, {"measurement": "left atrial pressure (PLA) relative to baseline", "setting": "sheep [2]; aerosolized, mean values increased", "value": "neither intravenous nor aerosolized UT-15 caused PLA to significantly change"}, {"measurement": "pulmonary vascular resistance (PVR)", "setting": "sheep [2]; intravenous", "value": "no significant effect"}, {"measurement": "systemic arterial pressure (PSYS)", "setting": "sheep [2]; intravenous", "value": "no significant effect"}, {"measurement": "cardiac output (CO) relative to baseline", "setting": "sheep [2]; intravenous", "value": "no significant changes"}, {"measurement": "central venous pressure (PCV) relative to baseline", "setting": "sheep [2]; intravenous", "value": "no statistical difference"}, {"measurement": "pulmonary arterial pressure (PPA) relative to baseline", "setting": "sheep [2]; intravenous", "value": "same effects"}, {"measurement": "left atrial pressure (PLA) relative to baseline", "setting": "sheep [2]; intravenous, mean values decreased", "value": "neither intravenous nor aerosolized UT-15 caused PLA to significantly change"}, {"measurement": "anti-aggregatory action on blood platelets", "setting": "blood platelets", "value": "potent anti-aggregatory action"}, {"measurement": "potency and efficacy in attenuating chemically induced pulmonary hypertension (increase in PVR)", "setting": "[1]; aerosolized UT-15 compared to intravascularly administered UT-15", "value": "greater potency and efficacy"}, {"measurement": "central venous pressure", "setting": "[1]; during iv U44069, aerosol UT-15, only 500 ng per kg per min", "value": "different from the corresponding intravenous UT-15 infusion value"}, {"measurement": "pulmonary arterial pressure (PPA)", "setting": "[1]; during iv U44069, aerosolized UT-15, 500 and 1000 ng per kg per min", "value": "back to normal values"}, {"measurement": "pulmonary vascular resistance (PVR) relative to baseline PVR", "setting": "[1]; during iv U44069, aerosolized UT-15, any of the three delivery rates", "value": "no significant difference"}, {"measurement": "pulmonary arterial pressure (PPA) versus U44069 value", "setting": "[1]; during iv U44069, intravascular UT-15", "value": "decrease significantly"}, {"measurement": "pulmonary vascular resistance (PVR), U44069-induced increase", "setting": "[1]; during iv U44069, intravenously infused UT-15, 500 and 1000 ng per kg per min", "value": "significantly attenuated"}, {"measurement": "left atrial pressure versus U44069 value", "setting": "[1]; during iv U44069, intravenously infused UT-15, all three delivery rates", "value": "significant decrease"}, {"measurement": "peripheral effects (heart rate, cardiac output)", "setting": "[1]; in vivo", "value": "no apparent peripheral effects"}, {"measurement": "pulmonary vascular driving pressure (PPA minus PLA) versus baseline", "setting": "sheep [3]", "value": "significant"}]}]}
